Measurements from publication PMC5838106, “Cathelicidin promotes inflammation by enabling binding of self-RNA to cell surface scavenger receptors” (Scientific Reports, 2018).
Where no end group is shown, it is not given here.

Biological target: T1, SR-A6 (Homo sapiens, UniProt Q9UEW3)
T1 construct: Proximity ligation assay for SR-A6 and U1; endogenous in cells; host or cells: NHEK (primary neonatal human epidermal keratinocytes)
T1 sequence (Q9UEW3 1-520): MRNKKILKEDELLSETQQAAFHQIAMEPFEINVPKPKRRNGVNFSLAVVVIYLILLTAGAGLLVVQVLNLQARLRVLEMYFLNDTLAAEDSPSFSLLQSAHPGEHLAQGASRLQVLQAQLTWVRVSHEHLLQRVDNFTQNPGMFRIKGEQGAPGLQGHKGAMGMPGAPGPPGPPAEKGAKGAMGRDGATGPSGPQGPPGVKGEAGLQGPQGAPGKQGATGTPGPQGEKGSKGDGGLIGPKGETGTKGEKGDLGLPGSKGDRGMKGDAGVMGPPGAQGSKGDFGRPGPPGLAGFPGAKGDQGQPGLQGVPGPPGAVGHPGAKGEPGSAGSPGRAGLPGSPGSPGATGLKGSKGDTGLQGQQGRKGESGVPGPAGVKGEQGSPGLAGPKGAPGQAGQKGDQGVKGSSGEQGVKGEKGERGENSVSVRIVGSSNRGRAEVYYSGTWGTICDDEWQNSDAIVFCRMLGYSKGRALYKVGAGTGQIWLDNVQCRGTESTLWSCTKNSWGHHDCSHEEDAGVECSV
Assay: Proximity ligation assay for SR-A6 and U1 RNA
Type: cell-based
Conditions: NHEKs, peptide 2.5 μM 10 minutes, biotinylated U1 RNA 2.5 μg/mL, 4 °C, 1 hour
Description: NHEKs seeded into 8 chamber slides (Thermo Fisher Scientific) were incubated with various combination of U1 RNA, poly(I:C), cathelicidin peptides, and fucoidan for 1 hour at 4 °C allowing binding, but not internalization. Unbound RNA was removed by washing with cold PBS. Cells were fixed with 4% PFA at 4 °C. Blocking buffer (Sigma) was used to prevent nonspecific antibody binding, and cells were incubated with two primary antibodies. […] Fluorescent PLA signals were evaluated using fluorescence microscopy (described above). Signals are counted by Duolink ImageTool software version 1.0.1.2 (Sigma-aldrich). […]
RNA. NHEKs were cultured with various cathelicidin peptides (2.5 µM) for 10 minutes, then with biotinylated U1 RNA (2.5 µg/mL) at 4 °C for 1 hour before physical proximity of SR-A6 and U1 RNA was determined using a fluorescence-based PLA that produces a red fluorescent signal. […] PMA-treated THP1 were cultured with various cathelicidin peptides (3 µM) for 10 minutes, then with biotinylated U1 RNA (2.5 µg/mL) at 4 °C for 1 hour before physical proximity of U1 RNA and scavenger receptors was determined using a fluorescence-based PLA, each count is PLA complexes observed in 5 visual fields. f) NHEKs cultured at 37 °C that were stained immediately after or after 5 […]

Substance | close association between U1 RNA and SR-A6 (PLA, <40 nm)
LLGDFFRKSKEKIGKEFKRIVQRIKDFLRNLVPR [LL34] | enabled close association
LL37 | enabled close association
